Test results published in patent US20230348437A1, “COMPOUNDS, COMPOSITIONS AND METHODS” (Denali Therapeutics Inc., priority 2020, published 2023).

tested on: NLRP3 (IL-1β secretion from THP-1 cells); assay: IL-1β secretion assay in 384-well plates, PMA differentiated THP-1 cells, LPS and nigericin stimulation; format: cell-based; conditions: Homo sapiens; THP-1 cells, PMA 5 ng/mL, LPS 25 ng/mL, nigericin, IL-1β ELISA, 384-well; read-out: Activity
Experimental: Compounds as provided herein were tested in the following assay. […] Freezing medium was made up of 90% FBS and 10% DMSO. THP-1 cells were removed from the liquid nitrogen and placed into a 37° C. water bath to thaw, until signs of ice dissipated. The cells were then added to 9 mL of warm cell culture medium and centrifuged for 5 minutes at 1000 rpm. The supernatant was discarded, and the cells were resuspended in new cell culture medium. The THP-1 cells were then split and cultured in the cell culture medium, being passaged every 2-3 days (5×10^5 cells/mL passaged every two days, 3×10^5 cells/mL passaged every three days). Cell density was maintained between 5×10^5-1.5×10^6 viable cells/mL.
PMA was dissolved in DMSO to make a stock solution at 5 mg/mL and stored in 10 µl aliquots at -20° C. for single use. PMA is added to normal growth medium. LPS was diluted with 1 mL of water solution to provide a 1 mg/mL stock solution and stored in 15 µl aliquots at -20° C. for single use. Nigericin is diluted in ice cold 100% ethanol to 5 mg/mL (6.7 mM) and stored in 75 µL aliquots at -20° C. for single use. […] The two control conditions used to qualify and normalize test compound dose-response curves were as follows: High Control = 25 ng/mL LPS, 5 µM Nigericin, 0.5% DMSO, Low Control = 25 ng/mL, LPS, 0.5% DMSO.
THP-1 cells were diluted to provide a suspension at a concentration of 1.0×10^6 cells/mL with the total volume of suspension required to enable the desired number of assay plates. The growth media was supplemented with PMA (5 ng/mL final concentration) and the cells were incubated at 37° C. under a humidified atmosphere of 5% CO2 for 40 h.
All media was carefully aspirated from each culture flask. The cells were washed carefully with 1x DPBS. The cells were then briefly digested with trypsin LE for 5 minutes at 23° C. and immediately resuspended in cell growth media. After resuspension, the cells were centrifuged at 1000 rpm for 3 minutes and the supernatant was discarded. The cells were resuspended in DPBS and once again centrifuged at 1000 rpm for 5 minutes. The supernatant was discarded and the cell pellet was resuspended in serum-free media supplemented with LPS (25 ng/mL final concentration) to enable the distribution of 30 K THP-1 cells within 45 µL of media into each well of 384-well PDL-coated plates. The 384-well plates were then incubated at 37° C. under a humidified atmosphere of 5% CO2 for 2 h. Following this period, test compounds were dispensed by Tecan across the desired concentration range with all wells normalized to a final 0.5 % DMSO concentration. The plates were then incubated at 37° C. under a humidified atmosphere of 5% CO2 for 1 h. Following this period, 5 µL of the […] nigericin stock solution was added to each of the appropriate wells and plates were centrifuged at 1000 rpm for 30 seconds. The plates were the immediately reintroduced to the incubator at 37° C. under a humidified atmosphere of 5% CO2 for 2 h. After this time, 35 µL/well of supernatant was collected and transferred into v-bottom plate and centrifuged at 1000 rpm for 1 minute. These supernatant aliquots were analyzed using an IL-Iβ detection kit as described below. If needed, the test samples could be snap frozen and stored at -80° C. until analyzed.
To prepare each ELISA plate, capture antibody (mAb Mt175) was diluted with PBS to a final concentration of 2 µg/mL and then 20 µL of this solution was added to each well of the ELISA plate. Each plate was allowed to incubate overnight at 4° C. The next day, the capture antibody solution was removed and discarded. […] Each ELISA plate was then allowed to incubate for 1 hour at 23° C. After this time, the blocking buffer was removed and discarded. Each ELISA plate was washed 4 times with PBST. During this time, the v-bottomed plates containing the supernatant aliquots from the assay run were centrifuged at 300 g for 5 minutes before transferring 15 µL/well of the supernatant sample to each ELISA plate. […]

Row | SMILES | IC50 [µM]
1 | CC(C)c1nn(CC(=O)N[C@H]2C[C@@](C)(O)C2)c(=O)cc1-c1cc(F)cc(F)c1 [Example 21, 2-[4-(3,5-difluorophenyl)-6-oxo-3-propan-2-ylpyridazin-1-yl]-N-(cis-3-hydroxy-3-methylcyclobutyl)acetamide] | 0.902
2 | Cc1cccc(-c2cc(=O)n(CC(=O)N[C@H]3C[C@@](C)(O)C3)nc2C(C)C)c1F [Example 22, 2-[4-(2-fluoro-3-methylphenyl)-6-oxo-3-propan-2-ylpyridazin-1-yl]-N-(cis-3-hydroxy-3-methylcyclobutyl)acetamide] | 1.57
3 | Cc1ccc(F)c(-c2cc(=O)n(CC(=O)N[C@H]3C[C@@](C)(O)C3)nc2C(C)C)c1 [Example 23, 2-[4-(2-fluoro-5-methylphenyl)-6-oxo-3-propan-2-ylpyridazin-1-yl]-N-(cis-3-hydroxy-3-methylcyclobutyl)acetamide] | 1.89
4 | CC(C)c1nn(CC(=O)N[C@H]2C[C@@](C)(O)C2)c(=O)cc1-c1cc(F)ccc1F [Example 24, 2-[4-(2,5-difluorophenyl)-6-oxo-3-propan-2-ylpyridazin-1-yl]-N-(cis-3-hydroxy-3-methylcyclobutyl)acetamide] | 1.9
5 | CC(C)c1nn(CC(=O)N[C@H]2C[C@@](C)(O)C2)c(=O)cc1-c1cccc(F)c1F [Example 25, 2-[4-(2,3-difluorophenyl)-6-oxo-3-propan-2-ylpyridazin-1-yl]-N-(cis-3-hydroxy-3-methylcyclobutyl)acetamide] | 1.82
6 | Cc1ccccc1-c1cc(=O)n(CC(=O)N[C@H]2C[C@@](C)(O)C2)nc1C(C)C [Example 26] | 6.66
7 | CC(C)c1nn(CC(=O)N[C@H]2C[C@@](C)(O)C2)c(=O)cc1-c1cccc(C2CC2)c1 [Example 27, 2-[4-(3-cyclopropylphenyl)-6-oxo-3-propan-2-ylpyridazin-1-yl]-N-(cis-3-hydroxy-3-methylcyclobutyl)acetamide] | 1.91
8 | CCOc1cccc(-c2cc(=O)n(CC(=O)N[C@H]3C[C@@](C)(O)C3)nc2C(C)C)c1 [Example 28, 2-[4-(3-ethoxyphenyl)-6-oxo-3-propan-2-ylpyridazin-1-yl]-N-(cis-3-hydroxy-3-methylcyclobutyl)acetamide] | 8.47
9 | CCN1CCC[C@@H](NC(=O)Cn2nc(C(C)C)c(-c3cccc4ccccc34)cc2=O)C1 [Example 29] | 0.874
10 | CCN1CCC[C@@H](NC(=O)Cn2nc(C(C)C)c(-c3cc(F)cc(C4CC4)c3)cc2=O)C1 [Example 30, 2-[4-(3-cyclopropyl-5-fluorophenyl)-6-oxo-3-propan-2-ylpyridazin-1-yl]-N-[(3R)-1-ethylpiperidin-3-yl]acetamide] | 1.3
11 | CCN1CCC[C@@H](NC(=O)Cn2nc(C(C)C)c(-c3cccc(C4CCC4)c3)cc2=O)C1 [Example 31, 2-[4-(3-cyclobutylphenyl)-6-oxo-3-propan-2-ylpyridazin-1-yl]-N-[(3R)-1-ethylpiperidin-3-yl]acetamide] | 6.98
12 | CCN1CCC[C@@H](NC(=O)Cn2nc(C(C)C)c(-c3cc(F)cc(F)c3F)cc2=O)C1 [Example 32, N-[(3R)-1-ethylpiperidin-3-yl]-2-[6-oxo-3-propan-2-yl-4-(2,3,5-trifluorophenyl)pyridazin-1-yl]acetamide] | 0.649
13 | CC(C)c1nn(CC(=O)Nc2ncncc2F)c(=O)cc1-c1cccc2ccncc12 [Example 33] | 3.21
14 | CCOc1nn(CC(=O)N[C@H]2C[C@@](C)(O)C2)c(=O)cc1-c1ccccc1 [Example 34] | 29.5
15 | CCc1c(-c2cccc(F)c2)c(C(C)C)nn(CC(=O)Nc2ncncc2F)c1=O [Example 35, 2-[5-ethyl-4-(3-fluorophenyl)-6-oxo-3-propan-2-ylpyridazin-1-yl]-N-(5-fluoropyrimidin-4-yl)acetamide] | 35.3
16 | Cc1c(-c2cccc(F)c2)c(C(C)C)nn(CC(=O)Nc2ncncc2F)c1=O [Example 36, 2-[4-(3-fluorophenyl)-5-methyl-6-oxo-3-propan-2-ylpyridazin-1-yl]-N-(5-fluoropyrimidin-4-yl)acetamide] | 1
17 | CC(C)c1nn(CC(=O)Nc2ncncc2F)c(=O)c(C(F)F)c1-c1cccc(F)c1 [Example 37, 2-[5-(difluoromethyl)-4-(3-fluorophenyl)-6-oxo-3-propan-2-ylpyridazin-1-yl]-N-(5-fluoropyrimidin-4-yl)acetamide] | 30.1
18 | Cc1c(-c2cc(F)cc(F)c2)c(C(C)C)nn(CC(=O)Nc2ncncc2F)c1=O [Example 38, 2-[4-(3,5-difluorophenyl)-5-methyl-6-oxo-3-propan-2-ylpyridazin-1-yl]-N-(5-fluoropyrimidin-4-yl)acetamide] | 0.812
19 | CC(C)c1nn(CC(=O)N[C@@H]2CCCN(C3CC3)C2)c(=O)cc1-c1cccc(F)c1 [Example 39, N-[(3R)-1-cyclopropylpiperidin-3-yl]-2-[4-(3-fluorophenyl)-6-oxo-3-propan-2-ylpyridazin-1-yl]acetamide] | 0.49
20 | CCN1CCC[C@@H](NC(=O)Cn2nc(C3CCC3)c(-c3cccc(F)c3)cc2=O)C1 [Example 40, 2-[3-cyclobutyl-4-(3-fluorophenyl)-6-oxopyridazin-1-yl]-N-[(3R)-1-ethylpiperidin-3-yl]acetamide] | 1.44
21 | CC(C)c1nn(CC(=O)Nc2ncccc2F)c(=O)cc1-c1cccc(F)c1 [Example 41, 2-[4-(3-fluorophenyl)-6-oxo-3-propan-2-ylpyridazin-1-yl]-N-(3-fluoropyridin-2-yl)acetamide] | 7.21
22 | CC(C)c1nn(CC(=O)Nc2ncncc2F)c(=O)cc1-c1cc(F)cc(F)c1 [Example 42, 2-[4-(3,5-difluorophenyl)-6-oxo-3-propan-2-ylpyridazin-1-yl]-N-(5-fluoropyrimidin-4-yl)acetamide] | 0.32
23 | CC(C)c1nn(CC(=O)Nc2ncc(F)cn2)c(=O)cc1-c1cc(F)cc(F)c1 [Example 44] | 0.236
24 | CC(C)c1nn(CC(=O)Nc2ncc(F)cc2F)c(=O)cc1-c1cc(F)cc(F)c1 [Example 45] | 0.596
25 | CC(C)c1nn(CC(=O)Nc2ncncc2F)c(=O)cc1-c1cc(F)cc(Cl)c1 [Example 46, 2-[4-(3-chloro-5-fluorophenyl)-6-oxo-3-propan-2-ylpyridazin-1-yl]-N-(5-fluoropyrimidin-4-yl)acetamide] | 0.637
26 | CC(C)c1nn(CC(=O)Nc2ncncc2F)c(=O)cc1-c1cc(F)cc(C2CC2(F)F)c1 (centres unmarked) [Example 47, 2-[4-[3-(2,2-difluorocyclopropyl)-5-fluorophenyl]-6-oxo-3-propan-2-ylpyridazin-1-yl]-N-(5-fluoropyrimidin-4-yl)acetamide] | 8.45
27 | O=C(Cn1nc(C2CC2)c(-c2cc(F)cc(F)c2)cc1=O)Nc1ncncc1F [Example 48, 2-[3-cyclopropyl-4-(3,5-difluorophenyl)-6-oxopyridazin-1-yl]-N-(5-fluoropyrimidin-4-yl)acetamide] | 1.64
28 | O=C(Cn1nc(C2CC2(F)F)c(-c2cc(F)cc(F)c2)cc1=O)Nc1ncncc1F (centres unmarked) [Example 49, 2-[3-(2,2-difluorocyclopropyl)-4-(3,5-difluorophenyl)-6-oxopyridazin-1-yl]-N-(5-fluoropyrimidin-4-yl)acetamide] | 3.24
29 | O=C(Cn1nc(CC(F)(F)F)c(-c2cc(F)cc(F)c2)cc1=O)Nc1ncncc1F [Example 50, 2-[4-(3,5-difluorophenyl)-6-oxo-3-(2,2,2-trifluoroethyl)pyridazin-1-yl]-N-(5-fluoropyrimidin-4-yl)acetamide] | 1.64
